Data from US7943162B2, “Drug delivery device” (Alcon, Inc., priority 1999, dated 2011).

Test: ocular pharmacokinetic study with rabbits implanted with ophthalmic drug delivery device 50 (LC-MS/MS tissue concentration)
Assay type: in vivo, New Zealand White rabbits
Settings: device 50 implanted on outer sclera below Tenon's capsule
Text: Device 50 was constructed as shown in FIGS. 5 through 6B, with the following dimensions. […] Inner core 106 was a cylindrical tablet with a diameter of about 5.0 mm and a thickness of about 1.5 mm. […] The pharmaceutically active agent used in tablet 106 was 4,9(11)-Pregnadien-17α,21-diol-3,20-dione, an angiostatic steroid sold by Steraloids, Inc. of Wilton, N.H., and which is more fully disclosed in U.S. Pat. Nos. 5,770,592 and 5,679,666. The formulation of tablet 106 consisted of 99.75 weight percent 4,9(11)-Pregnadien-17α,21-diol-3,20-dione, and 0.25 weight percent magnesium stearate.
At one week after implantation, 4 rabbits were euthanized and their right eyes were enucleated. The device 50 was removed from the eyes, and the location of tablet 106 was marked on their sclerae. Following the removal of the anterior segment and the vitreous of each eye and inversion of the thus formed eye-cup, a 10 mm diameter circular zone of retinal tissue, concentric with and below the location of tablet 106 on the sclera, was harvested (the “target site”). […] All these tissues were separately homogenized, and the concentration of angiostatic steroid in each of these tissues was determined via an ocular pharmacokinetic study using high performance liquid chromatography and mass spectrometry analysis (LC-MS/MS). […]

**Q.** Which “mean concentration of angiostatic steroid in the retina and the choroid at the target site as a function of time” value (right eye, tablet 99.75 wt% drug, target site below tablet, 1, 3, 6, 9, 12 weeks after implantation, up to twelve weeks) does the source give for `C[C@]12CCC(=O)C=C1CC[C@@H]1C2=CC[C@@]2(C)[C@H]1CC[C@]2(O)C(=O)CO` [4,9(11)-Pregnadien-17α,21-diol-3,20-dione] here?
**A.** pharmaceutically effective and generally constant amount

**Q.** And the “levels of angiostatic steroid in the retina and the choroid at the second and third sites” value (second site remote from the target site, on the other side of the optic nerve, third site between the second site and the target site)?
**A.** at or near zero
